{"source": "patent US20250152552A1", "about": "“CANCER-CELL PROLIFERATION INHIBITOR AND CANCER-CELL-PROLIFERATION INHIBITION ENHANCER” (KYUSHU UNIVERSITY, NATIONAL UNIVERSITY CORPORATION, priority 2022, published 2025)", "key": {"[1]": {"test_system": "MC38 mouse colon cancer cell line", "test": "Administration of EGC-M5 alone, subcutaneous MC38 tumor growth in mice (Comparative Example)", "type": "in vivo", "conditions": "16 days after transplantation; EGC-M5 5, 10, 20 and 30 mg/kg b.w. i.p. daily; vs control group, Tukey test", "experimental": "After preparatory rearing, MC38 mouse colon cancer cell line was transplanted subcutaneously into the 6-weeks-old male C57BL/6 mice at an amount of 5.0×10^5 cells/mouse. Each group had 8 mice. EGC-M5 was dissolved in the PBS buffer containing 10% DMSO. 200 μL of EGC-M5 solution at a dose of 5 mg, 10 mg, 20 mg, and 30 mg/kg b.w. was intraperitoneally administered to the mice daily starting on day 4 after transplantation. The tumor volume was measured with the vernier calipers, and the growth of the tumor was evaluated with time.\nRegarding to the mean (Mean) and the standard error (S.E.) of the tumor volume (natural logarithm) 16 days after transplantation, the significant difference between the control group (Control group) and the EGC-M5 administration group was assessed by Tukey's Multiple Comparison test."}, "[2]": {"conditions": "mouse, oral administration; Biol. Pharm. Bull, 42, 212-221, 2019; cited from earlier work"}}, "data": [{"smiles": "O=C1CC[C@H](Cc2cc(O)cc(O)c2)O1", "note": "[EGC-M5, (R)-5-(3,5-dihydroxyphenyl)-γ-valerolactone]", "values": [{"measurement": "tumor volume (natural logarithm)", "setting": "[1]", "value": "no significant differences were observed in the tumor volume values"}, {"measurement": "conjugates detected in serum", "setting": "[2]", "value": "the sulfate conjugate and the glucuronic acid conjugate of the compound of 5-(3,5-dihydroxyphenyl)-γ-valerolactone are detected in the serum"}]}]}
